From patent publication US20140023611A1 (priority 2010, published 2014)

What was measured:
[1] = target: T1, rat NaP2b (SLC34A2) (Rattus norvegicus, UniProt Q9JJ09); test: Inhibition of NaP2b-mediated Pi (33P) uptake in transfected HEK293 cells, rat NaP2b; assay type: cell-based; conditions: 33P Pi uptake, 0.1 mM phosphate, value given as pIC50 range
T1 construct: host or cells: HEK293
T1 sequence (Q9JJ09 1-695): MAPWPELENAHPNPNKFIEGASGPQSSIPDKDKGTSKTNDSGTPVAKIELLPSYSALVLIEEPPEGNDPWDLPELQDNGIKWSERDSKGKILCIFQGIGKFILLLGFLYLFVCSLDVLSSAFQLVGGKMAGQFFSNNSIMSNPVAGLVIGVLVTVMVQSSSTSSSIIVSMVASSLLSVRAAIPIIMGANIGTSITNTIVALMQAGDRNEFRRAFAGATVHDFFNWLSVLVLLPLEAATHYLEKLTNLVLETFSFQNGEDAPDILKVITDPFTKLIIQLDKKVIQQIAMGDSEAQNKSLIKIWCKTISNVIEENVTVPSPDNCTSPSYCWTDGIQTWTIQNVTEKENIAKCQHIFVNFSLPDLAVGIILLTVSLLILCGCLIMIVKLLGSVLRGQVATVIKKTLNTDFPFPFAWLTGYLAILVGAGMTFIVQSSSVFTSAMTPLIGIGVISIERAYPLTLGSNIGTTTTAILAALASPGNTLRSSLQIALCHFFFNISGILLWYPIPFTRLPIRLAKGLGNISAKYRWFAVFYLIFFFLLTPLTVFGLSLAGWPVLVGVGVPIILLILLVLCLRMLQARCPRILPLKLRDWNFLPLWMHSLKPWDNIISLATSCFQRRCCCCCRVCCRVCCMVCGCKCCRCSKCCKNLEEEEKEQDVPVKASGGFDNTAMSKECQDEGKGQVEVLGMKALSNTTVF
Summary of the method: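 HEK293 cells were transiently transfected with NaP2b cDNA using Lipofectamine and grown near confluence. Compounds were tested at twelve concentrations from 0.1 nM to 30 uM in duplicate, and 33P-phosphate uptake was counted by scintillation after lysis. Results are expressed as pIC50.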

[2] = target: T2, human NaP2b (SLC34A2) (Homo sapiens, UniProt O95436); test: Inhibition of NaP2b-mediated Pi (33P) uptake in transfected HEK293 cells, human NaP2b; assay type: cell-based; conditions: for IC50: read-out: pIC50 range for human NaP2b (converted)
T2 construct: host or cells: HEK293
T2 sequence (O95436 1-690): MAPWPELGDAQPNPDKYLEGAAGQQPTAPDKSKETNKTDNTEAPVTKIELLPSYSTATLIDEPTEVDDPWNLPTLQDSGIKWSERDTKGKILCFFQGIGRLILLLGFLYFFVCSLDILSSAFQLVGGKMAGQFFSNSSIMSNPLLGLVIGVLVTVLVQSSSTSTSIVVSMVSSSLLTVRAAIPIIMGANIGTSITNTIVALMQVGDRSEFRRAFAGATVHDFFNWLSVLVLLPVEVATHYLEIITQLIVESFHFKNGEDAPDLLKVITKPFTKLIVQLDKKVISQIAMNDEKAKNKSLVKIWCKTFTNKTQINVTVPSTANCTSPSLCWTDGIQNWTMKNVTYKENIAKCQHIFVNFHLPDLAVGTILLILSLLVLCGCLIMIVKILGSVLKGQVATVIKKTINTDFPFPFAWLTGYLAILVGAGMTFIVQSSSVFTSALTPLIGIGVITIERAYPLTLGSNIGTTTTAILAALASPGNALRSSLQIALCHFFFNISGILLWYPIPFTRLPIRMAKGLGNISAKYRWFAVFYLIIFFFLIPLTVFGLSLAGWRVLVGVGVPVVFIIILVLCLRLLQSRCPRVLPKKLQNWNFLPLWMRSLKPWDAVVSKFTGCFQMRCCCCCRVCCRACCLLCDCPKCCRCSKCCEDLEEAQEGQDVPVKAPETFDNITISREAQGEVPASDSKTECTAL
Procedure: HEK293 cells were obtained from the American Type Culture collection and propagated per their instructions. Expression clones for rat and human NaP2b (SLC34A2) were obtained from Open Biosystems (Catalog numbers MRN1768-9510282, and MHS1010-99823026, respectively). The sequence of the human protein was mutated to insert a threonine after residue 37, and to introduce a N39D mutation.
The rate of phosphate (Pi) uptake into HEK293 cells was measured using a modification of the method described by Mohrmann et al. (Mohrmann, I., Mohrmann, M., Biber, J., and Murer, H. (1986) Am. J. Phys. 250(3 Pt 1):G323-30.) Transfected HEK293 cells were treated with a pharmacological agent to minimize endogenous PiT-mediated phosphate transport activity, such that the only remaining sodium-dependent phosphate transport activity is that which was bestowed by introduction of the NaP2b genes.
Cells were seeded into 96-well plates at 25,000 cells/well and cultured overnight. Lipofectamine 2000 (Invitrogen) was used to introduce the NaP2b cDNA, and the cells were allowed to approach confluence during a second overnight incubation. […] Cells were then overlayed with either choline uptake buffer or sodium uptake buffer (14 mM Tris, 137 mM sodium chloride, 5.4 mM KCl, 2.8 mM CaCl2, 1.2 mM MgSO4, 100 uM KH2PO4, PiT-silencing agent, 1 mg/mL Bovine Serum Albumin, pH 7.4) containing 6-9 uCi/mL ^33P orthophosphoric acid (Perkin Elmer) and test compound. Each compound was tested at twelve concentrations ranging from 0.1 nM to 30 uM. Assays were run in duplicate.
After incubation for 3-30 minutes at room temperature, assay mixtures were removed, and the cells were washed twice with ice cold stop solution (137 mM sodium chloride, 14 mM Tris, pH 7.4). Cells were lysed by addition of 20 μL 0.1% Tween 80 followed by 100 μL scintillation fluid, and counted using a TopCount (Perkin Elmer).
pIC50 (the negative log of the IC50) values of the test compounds were calculated using GraphPad Prism.

Compound	IC50 [1] [nM]	IC50 [2] [nM]	pIC50 range for rat Nap2b [1]	pIC50 range for human NaP2b ([2]; 33P Pi uptake, transfected HEK293 cells, 0.1 mM phosphate, value given as pIC50 range)
CN(CCN1CCN(C(=O)N(C)CCOCCOCCOCCC(=O)OC(C)(C)C)CC1)C(=O)c1cccc(C(=O)Nc2ccc(N3CCCCC3)cc2-c2cc(C(=O)N[C@H]3CCCc4ccccc43)ccn2)c1 [Example 229, tert-butyl 3-[2-(2-{2-[methyl(4-{2-[N-methyl-1-(3-{[4-(piperidin-1-yl)-2-(4-{[(1S)-1,2,3,4-tetrahydronaphthalen-1-yl]carbamoyl}pyridin-2-yl)phenyl]carbamoyl}phenyl)formamido]ethyl}piperazin-1-yl)carbonylamino]ethoxy}ethoxy)ethoxy]propanoate]	< 1000	< 1000	–	–
O=C(O)CCOCCOCCOCCOCCCc1cccc(SCc2cccc(C(=O)Nc3ccc(N4CCCCC4)cc3-c3cc(C(=O)N[C@H]4CCCc5ccccc54)ccn3)c2)c1 [Example 247, 3-(2-(2-(2-(3-(3-((30S)-3-((2-(4-(((S)-1,2,3,4-tetrahydronaphthalen-1-yl)carbamoyl)pyridin-2-yl)-4-(piperidin-1-yl)phenyl)carbamoyl)benzylthio)phenyl)propoxy)ethoxy)ethoxy)ethoxy)propanoic acid]	1000 to 7940	1000 to 7940	–	–
O=C(O)CCSCc1cccc(C(=O)Nc2ccc(N3CCCCC3)cc2-c2cc(NCc3ccccc3)ncn2)c1 [Example 3.7, 3-((3-((2-(6-(Benzylamino)pyrimidin-4-yl)-4-(piperidin-1-yl)phenyl)carbamoyl)benzyl)thio)propanoic acid]	10000 to 31600	10000 to 31600	–	–
O=C(O)CCOCCOCCOCCNC(=O)c1cccc2c1ccn2Cc1cccc(C(=O)Nc2ccc(N3CCCCC3)cc2-c2cc(C(=O)NCc3cccc(C(F)(F)F)c3)ccn2)c1 [Example 9.2, 1-Oxo-1-(1-(3-((4-(piperidin-1-yl)-2-(4-((3-(trifluoromethyl)benzyl)carbamoyl)pyridin-2-yl)phenyl)carbamoyl)benzyl)-1H-indol-4-yl)-5,8,11-trioxa-2-azatetradecan-14-oic acid]	1000 to 7940	< 1000	–	–
CN(CCN1CCOCC1)C(=O)c1cccc(C(=O)Nc2ccc(OC3CCC3)cc2-c2cc(C(=O)N[C@H]3CCCc4ccccc43)ccn2)c1 [Example 132, N1-(2-(4-(((S)-1,2,3,4-tetrahydronaphthalen-1-yl)carbamoyl)pyridin-2-yl)-4-cyclobutoxyphenyl)-N3-methyl-N3-(2-morpholinoethyl)isophthalamide]	< 1000	< 1000	–	–
CCN(CC)c1ccc(NC(=O)c2cccc(C(=O)N(C)CCN(C)CCOCCOCCOCCN=[N+]=[N-])c2)c(-c2cc(C(=O)N[C@H]3CCCc4ccccc43)ccn2)c1 [Example 222, (S)—N1-(14-azido-3-methyl-6,9,12-trioxa-3-azatetradecyl)-N3-(4-(diethylamino)-2-(4-(1,2,3,4-tetrahydronaphthalen-1-ylcarbamoyl)pyridin-2-yl)phenyl)-N1-methylisophthalamide]	< 1000	< 1000	–	–
O=C(O)CCSCc1cccc(C(=O)Nc2ccc(N3CCCCC3)cc2-c2cc(Nc3cccc(C(F)(F)F)c3)ncn2)c1 [Example 3.10, 3-((3-((4-(Piperidin-1-yl)-2-(6-((3-(trifluoromethyl)phenyl)amino)pyrimidin-4-yl)phenyl)carbamoyl)benzyl)thio)propanoic acid]	1000 to 7940	10000 to 31600	–	–

Other lines, results leading:

IC50 [1] [nM]	IC50 [2] [nM]	pIC50 range for rat Nap2b [1]	pIC50 range for human NaP2b ([2]; 33P Pi uptake, transfected HEK293 cells, 0.1 mM phosphate, value given as pIC50 range)	Compound
–	–	5.1-6.0	5.1-6.0	16-(3-(4-(16-(3-(4-(diethylamino)-2-(4-(3-(trifluoromethyl)benzylcarbamoyl)pyridin-2-yl)phenylcarbamoyl)phenyl)-4,7,10,13-tetraoxahexadecane)piperazine-1-carbonyl)phenyl)-4,7,10,13-tetraoxahexadecan-1-oic acid [Example 293]
< 1000	1000 to 7940	–	–	CCN(CC)c1ccc(NC(=O)c2cccc(CCCOCCOCCOCCOCCC(=O)N(CCO)CCO)c2)c(-c2cc(C(=O)N[C@H]3CCCc4ccccc43)ccn2)c1 [Example 282]
1000 to 7940	1000 to 7940	–	–	COCCOCCOCCOCCOCCOCCOCCN(C)C(=O)CCOCCOCCOCCOCCCc1cccc(C(=O)Nc2ccc(N3CCCCC3)cc2-c2cc(C(=O)NCc3cccc(C(F)(F)F)c3)ccn2)c1 [Example 276]
1000 to 7940	< 1000	–	–	CCN(CC)c1ccc(NC(=O)c2cccc(CCCOCCOCCOCCOCCC(=O)N3CCN(c4ccc(OCCOCCOCCOC)cc4)CC3)c2)c(-c2cc(C(=O)NCc3cccc(C(F)(F)F)c3)ccn2)c1 [Example 263, 2-(5-(diethylamino)-2-(3-(16-(4-(4-(2-(2-(2-methoxyethoxy)ethoxy)ethoxy)phenyl)piperazin-1-yl)-16-oxo-4,7,10,13-tetraoxahexadecyl)benzamido)phenyl)-N-(3-(trifluoromethyl)benzyl)isonicotinamide]
1000 to 7940	1000 to 7940	–	–	CCN(CC)c1ccc(NC(=O)c2cccc(CCCOCCOCCOCCOCCNS(=O)(=O)c3cccc(C(=O)O)c3)c2)c(-c2cc(C(=O)NCc3cccc(C(F)(F)F)c3)ccn2)c1 [Example 289, 3-(N-(15-(3-(4-(diethylamino)-2-(4-(3-(trifluoromethyl)benzylcarbamoyl)pyridin-2-yl)phenylcarbamoyl)phenyl)-3,6,9,12-tetraoxapentadecyl)sulfamoyl)benzoic acid]
1000 to 7940	< 1000	–	–	CCN(CC)c1ccc(NC(=O)c2cccc(CCCOCCOCCOCCOCCC(=O)N3CCC[C@H](C(=O)N(C)CCOCCOCCOCCOCCOCCOCCOC)C3)c2)c(-c2cc(C(=O)NCc3cccc(C(F)(F)F)c3)ccn2)c1 [Example 257, (S)-2-(2-(3-(16-(3-(2,5,8,11,14,17,20-heptaoxadocosan-22-yl(methyl)carbamoyl)piperidin-1-yl)-16-oxo-4,7,10,13-tetraoxahexadecyl)benzamido)-5-(diethylamino)phenyl)-N-(3-(trifluoromethyl)benzyl)isonicotinamide]
10000 to 31600	1000 to 7940	–	–	CCN(CC)c1ccc(NC(=O)c2cccc(CCCOCCOCCOCCOCCC(=O)N3CCN(S(=O)(=O)c4ccc(C(=O)O)cc4)CC3)c2)c(-c2cc(C(=O)NCc3cccc(C(F)(F)F)c3)ccn2)c1 [Example 290, 4-(4-(16-(3-(4-(diethylamino)-2-(4-(3-(trifluoromethyl)benzylcarbamoyl)pyridin-2-yl)phenylcarbamoyl)phenyl)-4,7,10,13-tetraoxahexadecane)piperazin-1-ylsulfonyl)benzoic acid]
